Assay results reported in patent publication US5334606A, “Oxazolidindione substituted indole derivatives” (Merck Sharpe & Dohme Ltd., priority 1991, dated 1994).

How the values were obtained:
[1] = literature, J. Med. Chem., 33(5), 1418-23 (1990); cited from earlier work
[2] = literature, J. Med. Chem., 24(4), 465-8 (1981); cited from earlier work
[3] = biological target: T1, human neurokinin-1- receptor (NK1R) (Homo sapiens, UniProt P25103); experiment: 125I-substance P binding assay, human NK1R expressed in COS or CHO cells (Substance P antagonism); conditions: displacement of 125I-substance P, 4° C. or room temperature, 1 hour
T1 construct: expressed in transfected cells
Protocol: SUBSTANCE P ANTAGONISM ASSAY
A. Receptor Expression in Monkey Kidney Cell Line (COS)
To express the cloned human neurokinin-1- receptor (NK1R) transiently in COS, the cDNA for the human NK1R was cloned into the expression vector pCDM9 which was derived from pCDM8 (INVITROGEN) by inserting the ampicillin resistance gene (nucleotide 1973 to 2964 from BLUESCRIPT SK+ (trademark, STRATAGENE, La Jolla, Calif., USA)) into the Sac II site. Transfection of 20 μg of the plasmid DNA into 10 million COS cells was achieved by electropotation in 800 μl of transfection buffer (135 mM NaCl, 1.2 mM CaCl2, 1.2 mM MgCl2, 2.4 mM K2 HPO4, 0.6 mM KH2 PO4, 10 mM glucose, 10 mM N-2-hydroxyethyl-piperazine-N'-2-ethane sulphonic acid (HEPES) pH 7.4) at 260 V and 950 μF using the IBI GENEZAPPER (trademark IBI, New Haven, Conn., USA). The cells were incubated in 10% fetal calf serum, 2 mM glutamine, 100U/ml penicillin-streptomycin, and 90% DMEM media (GIBCO, Grand Island, N.Y., USA) in 5% CO2 at 37° C. for three days before the binding assay.
B. Stable Expression in Chinese Hamster Ovarian Cell Line (CHO)
To establish a stable cell line expressing cloned human NK1R, the cDNA was subcloned into the vector pRcCMV (INVITROGEN). Transfection of 20 μg of the plasmid DNA into CHO cells was achieved by electroporation in 800 μl of transfection buffer supplemented with 0.625 mg/ml Herring sperm DNA at 300 V and 950 μF using the IBI GENEZAPPER (IBI). The transfected cells were incubated in CHO media [10% fetal calf serum, 100 U/ml penicillin-streptomycin, 2 mM glutamine, 1/500 hypoxanthinethymidine (ATCC), 90% IMDM media (JRH BIOSCIENCES, Lenexa, Kans., USA), 0.7 mg/ml G418 (GIBCO)] in 5% CO2 at 37° C. until colonies were visible. Each colony was separated and propagated. The cell clone with the highest number of human NK1R was selected.
C. Assay Protocol using COS or CHO
The binding assay of human NK1R expressed in either COS or CHO cells is based on the use of ^125 I-substance P (^125 I-SP, from DU PONT, Boston, Mass.) as a radioactively labeled ligand which competes with unlabeled substance P or any other ligand for binding to the human NK1R. Monolayer cell cultures of COS or CHO were dissociated by the non-enzymatic solution (SPECIALTY MEDIA, Lavellette, N.J.) and resuspended in appropriate volume of the binding buffer (50 mM Tris pH 7.5, 5 mM MnCl2, 150 mM NaCl, 0.04 mg/ml bacitracin, 0.004 mg/ml leupeptin, 0.2 mg/ml BSA, 0.01 mM phosphoramidon) such that 200 μl of the cell suspension would give rise to about 10,000 cpm of specific ^125 I-SP binding (approximately 50,000 to 200,000 cells). In the binding assay, 200 μl of cells were added to a tube containing 20 μl of 1.5 to 2.5 nM of ^125 I-SP and 20 μl of unlabeled substance P or any other test compound. The tubes were incubated at 4° C. or at room temperature for 1 hour with gentle shaking. The bound radioactivity was separated from unbound radioactivity by GF/C filter (BRANDEL, Gaithersburg, MD) which was pre-wetted with 0.1% polyethylenimine. The filter was washed with 3 ml of wash buffer (50 mM Tris pH 7.5, 5 mM MnCl2, 150 mM NaCl) three times and its radioactivity was determined by gamma counter.

T1 sequence (P25103 whole entry): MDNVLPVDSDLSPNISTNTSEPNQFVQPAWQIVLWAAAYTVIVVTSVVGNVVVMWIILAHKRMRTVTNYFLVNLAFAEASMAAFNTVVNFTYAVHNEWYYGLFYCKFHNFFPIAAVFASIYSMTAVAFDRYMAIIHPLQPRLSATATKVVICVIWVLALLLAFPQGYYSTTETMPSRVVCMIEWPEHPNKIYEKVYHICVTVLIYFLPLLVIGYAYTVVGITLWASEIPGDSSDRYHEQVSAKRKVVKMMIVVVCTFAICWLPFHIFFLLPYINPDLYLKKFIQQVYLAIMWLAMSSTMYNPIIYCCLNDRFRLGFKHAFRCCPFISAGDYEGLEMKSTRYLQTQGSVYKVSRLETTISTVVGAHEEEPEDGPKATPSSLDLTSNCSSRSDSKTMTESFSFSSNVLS

Compound	IC50 [3] [nM]	also measured
O=C1NC(=O)C(Cc2ccc3ccccc3c2)S1 (stereo not drawn)	–	antihyperglycaemic activity [1]: antihyperglycaemic activity
CN1C(=O)NC(Cc2cccc(Br)c2)C1=O (stereo not drawn)	–	anticonvulsant activity [2]: weak anticonvulsant activity
1-Phenylcarboxamide-3-(3,5-bistrifluoromethylbenzyl)-5-(indol-3-ylmethylene)imidazolidine-2,4-dione [Example 13]	410	–
O=C1OC(Cc2c[nH]c3ccccc23)C(=O)N1Cc1cc(C(F)(F)F)cc(C(F)(F)F)c1 (stereo not drawn) [Example 1]	21	–
O=C1NC(Cc2c[nH]c3ccccc23)C(=O)N1Cc1cc(C(F)(F)F)cc(C(F)(F)F)c1 (stereo not drawn) [Example 2]	400	–
O=C1CC(Cc2c[nH]c3ccccc23)C(=O)N1Cc1cc(C(F)(F)F)cc(C(F)(F)F)c1 (stereo not drawn) [Example 3]	250	–
Cn1cc(CC2(C)OC(=O)N(Cc3cc(C(F)(F)F)cc(C(F)(F)F)c3)C2=O)c2ccccc21 (stereo not drawn) [Example 4a, 3-(3,5-Bistrifluoromethylbenzyl)-5-methyl-5-(1-methylindol-3-ylmethylene)oxazolidin-2,4-dione]	14	–
CC1(Cc2c[nH]c3ccccc23)OC(=O)N(Cc2cc(C(F)(F)F)cc(C(F)(F)F)c2)C1=O (stereo not drawn) [Example 4b]	140	–
Cn1cc(CC2OC(=O)N(Cc3cc(C(F)(F)F)cc(C(F)(F)F)c3)C2=O)c2ccccc21 (stereo not drawn) [Example 4c]	300	–
COc1ccc2[nH]cc(CC3OC(=O)N(Cc4cc(C(F)(F)F)cc(C(F)(F)F)c4)C3=O)c2c1 (stereo not drawn) [Example 5]	300	–
C=CCC1(Cc2c[nH]c3ccccc23)OC(=O)N(Cc2cc(C(F)(F)F)cc(C(F)(F)F)c2)C1=O (stereo not drawn) [Example 6]	50	–
O=C1OC(Cc2c[nH]c3ccccc23)C(=O)N1Cc1cc(Cl)cc(Cl)c1 (stereo not drawn) [Example 7]	200	–
O=C1O[C@@H](Cc2c[nH]c3ccccc23)C(=O)N1Cc1cc(C(F)(F)F)cc(C(F)(F)F)c1 [Example 8]	17	–
CC1(Cc2ccc3ccccc3c2)OC(=O)N(Cc2cc(C(F)(F)F)cc(C(F)(F)F)c2)C1=O (stereo not drawn) [Example 9, 5-Methyl-5-(2-naphthylmethyl)-3-(3,5-bistrifluoromethylbenzyl)oxazolidin-2,4-dione]	> 1000	–
CC1(Cc2ccc(Cl)c(Cl)c2)OC(=O)N(Cc2cc(C(F)(F)F)cc(C(F)(F)F)c2)C1=O (stereo not drawn) [Example 10, 5-Methyl-5(3,4-dichlorobenzyl)-3-(3,5-bistrifluoromethylbenzyl)oxazolidin-2,4-dione]	100	–
O=C1C(Cc2c[nH]c3ccccc23)N(Cc2ccccc2)C(=O)N1Cc1cc(C(F)(F)F)cc(C(F)(F)F)c1 (stereo not drawn) [Example 11]	630	–
CN1C(=O)N(Cc2cc(C(F)(F)F)cc(C(F)(F)F)c2)C(=O)C1Cc1c[nH]c2ccccc12 (stereo not drawn) [Example 12]	160	–
CNC(=O)N1C(=O)N(Cc2cc(C(F)(F)F)cc(C(F)(F)F)c2)C(=O)C1Cc1c[nH]c2ccccc12 (stereo not drawn) [Example 14]	85	–
